Source: patent US20030207830A1, “Mutant NDP kinases for antiviral nucleotide analog activation and therapeutic uses thereof” (priority 2002, published 2003)
Each block holds one molecule with its values, some of them ahead of it.

Legend:
[1] = system: E. coli BL21 (DE3) cells transformed with pJC20; experiment: AZT sensitivity of E. coli transformed with plasmid without insertion; type: cell-based; conditions: versus bacteria expressing NDPK-A, N115S-NDPK-A and L55H-N115S-NDPK-A, range tested
Description: (§12) The cells were grown at 37° C. in exponential phase in minimum medium. They were then complemented with various concentrations of AZT, and turbidity at 600 nm was measured after 4H. Transformation with the vector without insertion served as a control.
(§13) Wild type and mutated NDP kinases were overexpressed in E. coli cells, and the sensitivity of exponentially growing cells to AZT was assayed after induction of NDP kinase expression by IPTG. The viability was estimated by plating and counting the cells.
(§14) The sensitivity to AZT of E. coli transformed with NDP kinase expression vectors was evaluated. Bacteriea BL21 (DE3) (Stratagene) were transformed by heat shock with pJC20 vectors (Schaertl, 1998) expressing either the wild type NDPK-A (pJC20-HA), the mutant enzyme N115S (pJC20-N115S), the double mutant enzyme L55H-N115S (pJC20-L55H-N115S), or without insertion (pJC20). Bacteria were grown at 37° C. in M9 liquid medium supplemented with casaminoacids (Dilco ref.) in exponential phase, then 10 μM IPTG was added. After 1 hour, cells were complemented with AZT from 10^−7 mg/mL to 10^−4 mg/mL for 4 hours. One mL of bacteria was plated onto LB agar, incubated overnight at 37° C., and counted.

[2] = system: E. coli BL21 (DE3) cells expressing L55H-N115S NDPK-A
Description: as §12, §13, §14

[3] = molecular target: T1, human NDP kinase A (NDPK-A) variant L55H-N115S, SEQ ID NO: 3 (Homo sapiens, UniProt P15531, L55H/N115S); experiment: Pre-steady-state phosphotransfer, fluorescence stopped-flow; type: biochemical; conditions: substitution of Asn 115 for Ser and Leu 55 for His
T1 construct: made in house; host or cells: E. coli
T1 sequence (P15531 whole entry L55H/N115S): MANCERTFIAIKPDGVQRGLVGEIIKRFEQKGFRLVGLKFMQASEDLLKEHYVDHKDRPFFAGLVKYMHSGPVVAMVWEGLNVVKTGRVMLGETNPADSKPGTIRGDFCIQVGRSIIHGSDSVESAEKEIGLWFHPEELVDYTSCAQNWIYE
Description: (§1) FIG. 3 depicts the catalytic efficiency of NDPK-A and mutants for nucleoside analogs. The rates of phosphorylation of pure recombinant NDP kinases (1 μM) were measured at the pre-steady state in a fluorescence stopped-flow with d4T-TP (10 to 80 μM). The catalytic efficiency (expressed in M^−1s^−1) was determined from the variation of the rate as a function of analog as shown in FIG. 2 (▾, NDPK-A, ♦ L55H, ● N115S, ▪ L55H-N115S).
(§2) The activity assays were performed at the pre-steady state level.
(§3) R, the specificity change, is the ratio of the catalytic efficiencies (for analog versus natural nucleotide) of the mutant compared to the wild type enzyme.
(§4) Wild type human NDPK-A and the mutants were expressed and purified according to Schneider et al., 2000, Mol Pharm. Recombinant wild type and mutant Dd-NDPK were obtained as described (Schneid, 1998a), except for N119Y NDP kinase which was partially purified by Q sepharose FF chromatography. Each protein was characterized by […] electrophoresis. The concentration of 17 kDa subunits of the enzyme was either determined by Bradford assay ([…]) or using an absorbance coefficient of ΔA^280=1.249 for a 1 mg/mL solution of human wild type and N115S NDPK-A, and =0.55 for wild type and mutant N119S, N119T Dd-NDP kinases, respectively.
(§5) As the diphosphate form of analogs were not always available, the triphosphate analogs were used to study phosphate transfer in reaction as in Scheme I. Experiments were performed with an Hi-Tech DX2 microvolume stopped-flow reaction (Schneider, 1998) at Aexc=296 nm (for Ado derivatives) or […] (for other nucleotides), 2 mm excitation slit and a 320 nm cutoff filter at the emission. After mixing NDPK (1 μM) and NTP or an analogTP (10-500 μM), the intrinsic protein fluorescence was recorded for 10-200 sec. In each experiment, 400 pairs of data were recorded, and the data from 3-4 identical experiments were averaged and fitted to a number of non-linear analytical equations using the software provided by Hi-Tech.
(§6) The data were analyzed using the reaction scheme: [drawing 1]
(§7) In both the forward and the reverse reactions, the product concentration remains very low, thus the product binding can be neglected, and the observed single step could be attributed to the phosphotransfer (Schneider, 1998). The rate of this observed single step is: [formula]
and reaches a limiting value (k+2) at NTP saturation. […] Therefore, catalytic efficiencies of phosphorylation (CEphos=k+2/(k−1/k+1)=k+2/KS) were measured, which are equivalent to second order constants and allow a reliable comparison of a variety of NDP kinase substrates.

[4] = molecular target: T2, phosphorylated Dictyostelium N119S NDP kinase (Dictyostelium discoideum, UniProt P22887, N119S); experiment: Stopped-flow kinetics of phosphorylated enzyme with Acy-DP, N119S; type: biochemical
T2 construct: made in house
Description: (§8) (A) Kinetics of reaction of phosphorylated Dictyostelium wild type and N119S NDP kinases by 100 μM Acyclovir diphosphate (Acy-DP). The phosphorylated enzyme was prepared with a stoichiometry #1 as described (Deville-Bonne 1996). The kinases were preincubated with ATP in excess in buffer T (50 mM Tris-HCl, pH 7.5, 5 mM MgCl2 and 75 mM KCl). The increase in fluorescence upon mixing the phospho-enzyme (1 μM, final concentration) with Acy-DP in buffer T at 20° C. was monitored with a stopped-flow. The solid lines represent the best fit of each curve to a monoexponential.
(§9) (B) Concentration dependence of the rate constant on Acy-DP concentation. The pseudo-first order rate constant for the reaction (kobs) was plotted against Acy-DP.
Acyclovir is an acyclic nucleoside analog of Gua used against Herpes Simplex Virus.

[5] = molecular target: T3, phosphorylated Dictyostelium wild type NDP kinase (Dictyostelium discoideum, UniProt P22887); experiment: Stopped-flow kinetics of phosphorylated enzyme with Acy-DP, wild type; type: biochemical; conditions: phospho-enzyme 1 μM, buffer T, 20° C.
T3 construct: made in house
T3 sequence (P22887 1-155): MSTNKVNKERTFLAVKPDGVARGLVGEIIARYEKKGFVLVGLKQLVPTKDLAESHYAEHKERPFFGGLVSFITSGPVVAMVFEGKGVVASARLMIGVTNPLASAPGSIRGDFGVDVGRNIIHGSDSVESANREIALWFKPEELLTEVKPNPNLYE
Description: as §8, §9

[6] = molecular target: T4, Dictyostelium discoideum NDP kinase (Dd-NDPK) variant N119S, SEQ ID NO: 1 (Dictyostelium discoideum, UniProt P22887, N119S); experiment: Pre-steady-state phosphotransfer, fluorescence stopped-flow; type: biochemical
T4 construct: made in house
Description: as §8, §9
All numbers in italics have already been published (Schneider, 1998, 2000) The kinetic constants were measured at the pre-steady-state level using a fluorescence stopped-flow device. The binding constants were determined at equilibrium by recording the increase in fluorescence (Schneider, 2000). Values are the average of three independent determinations.
as §4
as §5, with “Hi-Tech. All curves fitted to single exponentials.” for “Hi-Tech.”
as §6, §7
and reaches a limiting value (k+2) at NTP saturation. Saturation could not be obtained with the concentrations of any NTP used here. Therefore, catalytic efficiencies of phosphorylation (CEphos=k+2/(k−1/k+1)=k+2/KS) were measured, which are equivalent to second order constants and allow a reliable comparison of a variety of NDP kinase substrates.

[7] = molecular target: T5, Dictyostelium discoideum NDP kinase (Dd-NDPK) variant N119T (Dictyostelium discoideum, UniProt P22887, N119T); experiment: Steady-state kinetics with ATP and dTDP, coupled enzymes; reactivity for analogs; type: biochemical; conditions: dTDP
T5 construct: made in house
T5 sequence (P22887 whole entry N119T): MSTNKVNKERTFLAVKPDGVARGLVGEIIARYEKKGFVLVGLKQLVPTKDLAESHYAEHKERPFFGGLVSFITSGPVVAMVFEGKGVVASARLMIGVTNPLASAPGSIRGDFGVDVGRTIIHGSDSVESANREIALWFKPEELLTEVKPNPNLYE
Description: (§10) First, by site-directed mutagenesis, a limited set of amino acid substitutions (Ser, Thr, or Tyr) at the position of Asn 119 were introduced into the active site of Dd-NDPK. The three mutant proteins were expressed and purified to homogeneity, except N119Y, which was found unstable and poorly active (0.05% of wild type activity).
(§11) The activity of NDP kinase was measured at 20° C. with ATP and dTDP as substrates using coupled enzymes (pyruvate kinase and lactate dehydrogenase) (Lascu 1993). One unit is the amount of enzyme that catalyzes the phosphotransfer of 1 μmol/min under standard conditions: [ATP]=1 mM, [dTDP]=0.2 mM. Rate constants (kcat) and Michaelis constants (Km) were determined from initial velocities for two different constant ratios of nucleotide [dTDP]/[ATP]=0.05 0.1 with [ATP] varying from 0.2 to 2 mM. kcat is expressed by enzyme subunit. The ratio of the ^apparentkcat/^apparentKM at a given concentration of the other substrate is equal to the true value of kcat/KM for a ping-pong enzyme.

[8] = molecular target: T4, Dictyostelium discoideum NDP kinase (Dd-NDPK) variant N119S, SEQ ID NO: 1; experiment: Steady-state kinetics with ATP and dTDP, coupled enzymes; type: biochemical; conditions: dTDP
Description: as §10, §11

[9] = Pre-steady-state phosphotransfer of human NDPK-A and mutants with d4T-TP; type: biochemical; conditions: ratio of catalytic efficiencies
Description: as §1
The intrinsic fluorescence properties of the three mutants were not affected by the mutations and were quenched upon phosphorylation of the catalytic His, as observed with wild type NDP kinase (Deville-Bonne, 1996). […]
as §5, with “Hi-Tech. […]” for “Hi-Tech.”

[10] = Steady-state NDP kinase activity, coupled enzymes (pyruvate kinase, lactate dehydrogenase); type: biochemical; conditions: for specific activity: standard conditions: [ATP]=1 mM, [dTDP]=0.2 mM, 20° C.
Description: as §11

[11] = Human NDPK-A mutants, summary over several nucleotide analogs compared to natural nucleotides; type: biochemical
Description: as §2, §3
The mutants described so far show altered specificity for antiviral drugs and natural nucleotides. Such a switch is usually defined as R, the specificity change, reflecting the ability of a mutant enzyme to prefer the analog rather than the natural nucleotide according to the expression: [formula]
where R is the ratio of the specificity factors of the mutant compared to the original enzyme, with the specificity factor of an enzyme being defined as the ratio of the catalytic efficiencies (CE=k2/KS) for a nucleotide analog and the natural nucleotide.

[12] = Reactivity of Dd-NDPK Asn 119 mutants for nucleotide analogs; type: biochemical; conditions: Dd-NDPK mutant versus wild type
Text: as §10

[13] = identical concentrations of Acy-DP

Molecule: Cc1cn([C@H]2C[C@H](N=[N+]=[N-])[C@@H](CO)O2)c(=O)[nH]c1=O [AZT]
sensitivity to AZT [1]: less sensitive to AZT
viable cells ([2]; AZT 5 and 10 ng/ml, double mutant versus wild type enzyme or N115S mutant): fewer viable cells
sensitization to AZT ([2]; E. coli transfected with the double mutant enzyme): increased sensitization to AZT
enhancement of ability to phosphorylate [3]: 200-300 times

Molecule: Nc1nc2c(ncn2COCCOP(=O)(O)OP(=O)(O)O)c(=O)[nH]1 [Acy-DP, Acyclovir diphosphate]
times faster phosphorylation by N119S NDP kinase than wild type enzyme [4, 13]: seven
apparent second order constant, N119S mutant ([4]; phospho-enzyme 1 μM, buffer T, 20° C.): 4,500 M^−1s^−1
apparent second order constant, wild type NDP kinase [5]: 670 M⁻¹ s⁻¹
improvement of catalytic efficiency of phosphorylation by the mutation ([6]; from [Acy-DP] dependency of kobs): seven fold
phosphorylation rate relative to wild type enzyme [6, 13]: seven times faster

Molecule: Cc1cn([C@H]2C[C@H](O)[C@@H](COP(=O)(O)OP(=O)(O)O)O2)c(=O)[nH]c1=O [dTDP]
kcat, times lower than wild type enzyme [7]: three
effect on KM ([7]; versus wild type): little effect on KM
kcat, times lower than wild type enzyme [8]: ten times lower
effect on KM ([8]; versus wild type): little effect on KM

Molecule: L55H-N115S: double mutant human NDPK-A, Leu 55 to His and Asn 115 to Ser; SEQ ID NO: 3
times more slowly / fold less reaction with d4T-TP than with dTTP [9]: eight
specific activity [10]: 240 U/mg
increment in activity with analogs versus NDPK-A ([11]; catalytic efficiencies of Table II): 80-100 fold

steady-state activity relative to NDPK-A ([10]; ATP and dTDP): 1/10
Molecule: N115S: human NDPK-A with Asn 115 changed into Ser; SEQ ID NO: 2
specific activity [10]: 140 U/mg
specificity change (R), switch in specificity over analogs ([11]; analog versus natural nucleotide, mutant versus NDPK-A): around 100

enzyme reactivity for analogs [12]: improvement
B1: N119S: Dd NDP kinase mutated at position 119, asparagine to serine; SEQ ID NO: 1 (protein, UniProt P22887 1-155, looked up, variant N119S)
Nucleoside diphosphate …: MSTNKVNKERTFLAVKPDGVARGLVGEIIARYEKKGFVLVGLKQLVPTKDLAESHYAEHKERPFFGGLVSFITSGPVVAMVFEGKGVVASARLMIGVTNPLASAPGSIRGDFGVDVGRSIIHGSDSVESANREIALWFKPEELLTEVKPNPNLYE
catalytic constant kcat, times lower than the wild type enzyme ([10]; natural substrates such as dTDP, steady state, Dd-NDPK): ten
